Values joined by “and” are separate entries in the source; they are usually repeats but may differ in a detail not shown here. Equal values may be shown once.
Experiments:
[1] = tested on: HL-60; test: In vitro cytotoxic activity against HL-60 human leukemia cell line by MTT assay (microculture terazolium colorimetric); assay type: functional, cell-based
[2] = tested on: SGC-7901; test: In vitro cytotoxic activity against SGC-7901 stomach cancer solid tumor cell line by MTT assay (microculture terazolium colorimetric); assay type: functional, cell-based; details: Homo sapiens
[3] = tested on: P388; test: In vitro cytotoxic activity against P388 mouse leukemia cell line by MTT assay (microculture terazolium colorimetric); assay type: functional, cell-based
[4] = tested on: SPC-A4; test: In vitro cytotoxic activity against SPC-A4 lung cancer solid tumor cell line by MTT assay (microculture terazolium colorimetric); assay type: functional, cell-based; details: Homo sapiens
[5] = tested on: Mus musculus; test: In vivo inhibitory activity against murine lewis lung cancer at a dose of 5.0 mg/kg i.p. (day10); assay type: functional; details: route intraperitoneal
[6] = tested on: Mus musculus; test: In vivo inhibitory activity against murine S-180 sarcoma at a dose of 3.0 mg/kg (day 7); assay type: functional
[7] = tested on: Mus musculus; test: (§1) Ratio of the tumor weight of mice at the initial stage and the final stage of the experiment was reported at a dose of 3.0 mg/kg (day 7); assay type: functional
[8] = tested on: Mus musculus; test: Ratio of the tumor weight of mice at the initial stage and the final stage of the experiment was reported at a dose of 5.0 mg/kg i.p. (day10); assay type: functional; details: route intraperitoneal
[9] = tested on: Mus musculus; test: as §1; assay type: functional; remark: listed apart in the source
[10] = tested on: Mus musculus; test: In vivo inhibitory activity against human lung adenocarcinoma xenograft A-549 in mice at a dose of 2.0 mg/kg (Q2dx10) administered i.p.; assay type: functional; details: route intraperitoneal
[11] = tested on: Mus musculus; test: Ratio of the tumor weight of mice at the initial stage and the final stage of the experiment was reported at a dose of 0.2 ml/mouse (Q2dx9) administered i.p.; assay type: functional
[12] = tested on: Mus musculus; test: In vivo inhibitory activity against human lung adenocarcinoma xenograft LAX-83 in mice at a dose of 2.0 mg/kg (Q2dx10) administered i.p.; assay type: functional; details: route intraperitoneal
[13] = tested on: Mus musculus; test: Ratio of the tumor weight of mice at the initial stage and the final stage of the experiment was reported at a dose of 0.2 ml/mouse (Q2dx10) administered i.p.; assay type: functional
[14] = tested on: Mus musculus; test: In vivo inhibitory activity against human lung adenocarcinoma xenograft A-549 in mice at a dose of 2.0 mg/kg (Q2dx9) administered i.p.; assay type: functional; details: A549, ip, route intraperitoneal
[15] = tested on: Mus musculus; test: Ratio of the tumor weight of mice at the initial stage and the final stage of the experiment was reported at a dose of 0.2 ml/mouse (Q2dx10) administered i.p.; 10/10; assay type: functional

Row | SMILES | IC50 [1] [nM] | IC50 [2] [nM] | IC50 [3] [nM] | IC50 [4] [nM] | further results
1 | C=C(C)[C@H](CCc1c(C)ccc2c1C(=O)C(=O)C(C(C)C)=C2)OO | 3700 | 2220 | 3700 | 2900 | 
2 | Cc1ccc2cc(C(C)C)c(=O)oc(=O)c2c1CCC(=O)C(C)C | 1430 | 89600 | 1470 | 2760 | 
3 | Cc1ccc2c(c1CCC=O)C(=O)C(=O)C(C(C)C)=C2 | 2390 | 52400 | 1780 | 2680 | 
4 | CC(=O)OC(CCc1c(C)ccc2c1C(=O)C(=O)C(C(C)C)=C2)C(C)(C)O (stereo not drawn) | 5040 |  | 3390 | 2610 | 
5 | COc1cc([C@@H]2c3cc4c(cc3[C@@H](O[C@@H]3O[C@@H]5CO[C@@H](C)O[C@H]5[C@H](O)[C@H]3O)[C@H]3COC(=O)[C@H]23)OCO4)cc(OC)c1O [ETOPOSIDE] |  |  |  |  | inhibition in vivo at 5 mg/kg ([5]; Mus musculus, Lung, ip, 240 h): 50.3%; Inhibition ([5]; 5 mg/kg): 48.5%; Inhibition [6]: 40% and 39.4% and 61.3%; Tumor weight [7]: 0.99 g; Tumor weight [8]: 0.73 g and 1.03 g; Tumor weight [9]: 1.09 g and 1.06 g
6 | CO[C@@]12[C@H](COC(N)=O)C3=C(C(=O)C(C)=C(N)C3=O)N1C[C@@H]1N[C@@H]12 [MITOMYCIN] |  |  |  |  | inhibition in vivo at 2 mg/kg ([10]; Mus musculus, A549, ip): 67.9%; Inhibition ([10]; 2 mg/kg): 52.69%; Tumor weight [11]: 3.43 g; Inhibition [12]: 63.49% and 70.1% and 87.54%; Tumor weight [13]: 1.62 g and 1.71 g and 1.91 g and 1.15 g; inhibition in vivo at 2 mg/kg [14]: 79.2%; Tumor weight [15]: 2.64 g
